Key:
[1] = system: patients with fasting triglyceride levels >200 mg/dl and <500 mg/dl despite statin therapy; assay: 12-week study: glucose metabolism (FPG, HbA1c, insulin, HOMA-IR); format: in vivo, human; conditions: MITT; for Fasting plasma glucose Percent change from Baseline Median (IQR) / HOMA-IR Percent change from Baseline Median (IQR) / HbAlc Percent change from Baseline Median (IQR) / Insulin Percent change from Baseline Median (IQR): Week 12 EP; for Fasting plasma glucose Percent change from Baseline Median (IQR) / HOMA-IR Percent change from Baseline Median (IQR) / HbAlc Percent change from Baseline Median (IQR) / Insulin Percent change from Baseline Median (IQR) / Fasting plasma glucose Difference from placebo Estimated median / HOMA-IR Difference from placebo Estimated median / HbAlc Difference from placebo Estimated median / Insulin Difference from placebo Estimated median: ANCOVA; for Fasting plasma glucose Difference from placebo Estimated median / HOMA-IR Difference from placebo Estimated median / HbAlc Difference from placebo Estimated median / Insulin Difference from placebo Estimated median: change from baseline to Week 12 EP
Text: (§1) Parameters (a)-(z) can be measured in accordance with any clinically acceptable methodology. For example, triglycerides, total cholesterol, HDL-C and fasting blood sugar can be sample from serum and analyzed using standard photometry techniques. VLDL-TG, LDL-C and VLDL-C can be calculated or determined using serum lipoprotein fractionation by preparative ultracentrifugation and subsequent quantitative analysis by refractometry or by analytic ultracentrifugal methodology. Apo A1, Apo B and hsCRP can be determined from serum using standard nephelometry techniques. Lipoprotein (a) can be determined from serum using standard turbidimetric immunoassay techniques. LDL particle number and particle size can be determined using nuclear magnetic resonance (NMR) spectrometry. Remnants lipoproteins and LDL-phospholipase A2 can be determined from EDTA plasma or serum and serum, respectively, using enzymatic immunoseparation techniques. Oxidized LDL, intercellular adhesion molecule-1 and interleukin-2 levels can be determined from serum using standard enzyme immunoassay techniques. These techniques are described in detail in standard textbooks, for example Tietz Fundamentals of Clinical Chemistry, 6th Ed. (Burtis, Ashwood and Borter Eds.), WB Saunders Company.
(§2) A multi-center, placebo-controlled, randomized, double-blind, 12-week study was performed to evaluate the efficacy and safety of >96% E-EPA in patients with fasting triglyceride levels >200 mg/dl and <500 mg/dl despite statin therapy (the mean of two qualifying entry values needed to be >185 mg/dl and at least one of the values needed to be >200 mg/dl). The primary objective of the study was to determine the efficacy of >96% E-EPA 2 g daily and 4 g daily, compared to placebo, in lowering fasting TG levels in patients with high risk for cardiovascular disease and with fasting TG levels 200 mg/dl and <500 mg/dl, despite treatment to LDL-C goal on statin therapy.
The secondary objectives of this study were the following: • 1. To determine the safety and tolerability of >96% E-EPA 2 g daily and 4 g daily; • 2. To determine the effect of >96% E-EPA on lipid and apolipoprotein profiles including total cholesterol (TC), non-high-density lipoprotein cholesterol (non-HDL-C), low density lipoprotein cholesterol (LDL-C), high density lipoprotein cholesterol (HDL-C), and […]; • 3. To determine the effect of >96% E-EPA on lipoprotein associated phospholipase A2 (Lp-PLA2) from baseline to week 12; • 4. To determine the effect of >96% E-EPA on low-density lipoprotein (LDL) particle number and size; • 5. To determine the effect of >96% E-EPA on oxidized LDL; • 6. To determine the effect of >96% E-EPA on fasting plasma glucose (FPG) and hemoglobin A1c (HbA1c); • 7. To determine the effect of >96% E-EPA on insulin resistance; • 8. To determine the effect of >96% E-EPA on high-sensitivity C-reactive protein (hsCRP); • 9. To determine the effects of >96% E-EPA 2 g daily and 4 g daily on the incorporation of fatty acids into red blood cell membranes and into plasma phospholipids; • 10. To explore the relationship between baseline fasting TG levels and the reduction in fasting TG levels; and • 11. To explore the relationship between changes of fatty acid concentrations in plasma and red blood cell membranes, and the reduction in fasting TG levels.
The primary efficacy variable for the double-blind treatment period was percent change in TG from baseline to Week 12 endpoint. […]

[2] = system: patients with fasting triglyceride levels >200 mg/dl and <500 mg/dl despite statin therapy; assay: 12-week study: apolipoproteins (Apo A-1, Apo B, ratio) and lipoprotein(a); format: in vivo, human; conditions: for Apo A1 Week 12 EP Median (IQR) / Apo B Week 12 EP Median (IQR) / Apo B/Apo A1 ratio Week 12 EP Median (IQR) / Lp (a) Week 12 EP Median (IQR) / Apo A1 Percent change from Baseline Median (IQR) / Apo B Percent change from Baseline Median (IQR) / Apo B/Apo A1 ratio Percent change from Baseline Median (IQR) / Lp (a) Percent change from Baseline Median (IQR) / Apo A1 Difference from placebo Estimated median / Apo B Difference from placebo Estimated median / Apo B/Apo A1 ratio Difference from placebo Estimated median / Lp (a) Difference from placebo Estimated median: MITT; for Apo A1 Percent change from Baseline Median (IQR) / Apo B Percent change from Baseline Median (IQR) / Apo B/Apo A1 ratio Percent change from Baseline Median (IQR) / Lp (a) Percent change from Baseline Median (IQR): Week 12 endpoint; for Apo A1 Difference from placebo Estimated median / Apo B Difference from placebo Estimated median / Apo B/Apo A1 ratio Difference from placebo Estimated median / Lp (a) Difference from placebo Estimated median: percent change from baseline to Week 12 endpoint
Text: as §1, §2
The primary efficacy variable for the double-blind treatment period was percent change in TG from baseline to Week 12 endpoint. The secondary efficacy variables for the double-blind treatment period included the following: • Percent changes in total cholesterol (TC), high-density lipoprotein cholesterol (HDL-C), LDL-C, calculated non-HDL-C, and very low-density lipoprotein cholesterol (VLDL-C) from baseline to Week 12 endpoint; • Percent change in very low-density lipoprotein TG from baseline to Week 12; • Percent changes in apolipoprotein A-I (Apo A-1), apolipoprotein B (Apo B), and Apo A-1/Apo B ratio from baseline to Week 12; • Percent changes in lipoprotein(a) from baseline to Week 12; • Percent changes in LDL particle number and size, measured by nuclear magnetic resonance, from baseline to Week 12; • Percent change in remnant-like particle cholesterol from baseline to Week 12; • Percent change in oxidized LDL from baseline to Week 12; • Changes in FPG and HbA1c from baseline to Week 12; • Change in insulin resistance, as assessed by the homeostasis model index insulin resistance, from baseline to Week 12; • Percent change in lipoprotein associated phospholipase A2 (Lp-PLA2) from baseline to Week 12; • Change in intracellular adhesion molecule-1 from baseline to Week 12; • Change in interleukin-2 from baseline to Week 12; • Change in plasminogen activator inhibitor-1 from baseline to Week 12. Note: this parameter will only be collected at sites with proper storage conditions; • Change in hsCRP from baseline to Week 12; and • Change in plasma concentration and red blood cell membrane content of fatty acid from baseline to Week 12 including EPA, docosapentaenoic acid (DPA), docosahexaenoic acid (DHA), arachidonic acid (AA), dihomo-γ-linolenic acid (DGLA), the ratio of EPA/AA, ratio of oleic acid/stearic acid (OA/SA), and the ratio of total omega-3 acids over total omega-6 acids. […]

[3] = IPE 4 g/day (n = 216), 12 weeks, patients with lipoprotein data

Compound: CC/C=C\C/C=C\C/C=C\C/C=C\C/C=C\CCCC(=O)OCC [AMR101, ethyl eicosapentaenoate]
- Fasting plasma glucose Week 12 EP Median (IQR) ([1]; AMR101 2 g/d + statin): 138.0 (44.9) mg/dL
- HOMA-IR Week 12 EP Median (IQR) ([1]; AMR101 2 g/d + statin): 6.4 (4.5)
- HbAlc Week 12 EP Median (IQR) ([1]; AMR101 2 g/d + statin): 6.8 (1.2) %
- Insulin Week 12 EP Median (IQR) ([1]; AMR101 2 g/d + statin): 18.6 (11.0) μIU/mL
- Fasting plasma glucose Percent change from Baseline Median (IQR) ([1]; AMR101 2 g/d + statin): 3.6 (2.1) %
- HOMA-IR Percent change from Baseline Median (IQR) ([1]; AMR101 2 g/d + statin): −0.6 (0.4) %
- HbAlc Percent change from Baseline Median (IQR) ([1]; AMR101 2 g/d + statin): 0.2 (0.04) %
- Insulin Percent change from Baseline Median (IQR) ([1]; AMR101 2 g/d + statin): −1.2 (0.9) %
- Fasting plasma glucose Difference from placebo Estimated median ([1]; AMR101 2 g/d + statin): −0.6 (3.0)
- HOMA-IR Difference from placebo Estimated median ([1]; AMR101 2 g/d + statin): −0.1 (0.5)
- HbAlc Difference from placebo Estimated median ([1]; AMR101 2 g/d + statin): −0.0 (0.05)
- Insulin Difference from placebo Estimated median ([1]; AMR101 2 g/d + statin): −0.1 (1.3)
- Fasting plasma glucose Week 12 EP Median (IQR) ([1]; AMR101 4 g/d + statin): 141.9 (51.1) mg/dL
- HOMA-IR Week 12 EP Median (IQR) ([1]; AMR101 4 g/d + statin): 6.9 (6.7)
- HbAlc Week 12 EP Median (IQR) ([1]; AMR101 4 g/d + statin): 6.9 (1.1) %
- Insulin Week 12 EP Median (IQR) ([1]; AMR101 4 g/d + statin): 19.0 (16.2) μIU/mL
- Fasting plasma glucose Percent change from Baseline Median (IQR) ([1]; AMR101 4 g/d + statin): 8.9 (2.1) %
- HOMA-IR Percent change from Baseline Median (IQR) ([1]; AMR101 4 g/d + statin): −0.1 (0.4) %
- HbAlc Percent change from Baseline Median (IQR) ([1]; AMR101 4 g/d + statin): 0.3 (0.04) %
- Insulin Percent change from Baseline Median (IQR) ([1]; AMR101 4 g/d + statin): −1.1 (0.9) %
- Fasting plasma glucose Difference from placebo Estimated median ([1]; AMR101 4 g/d + statin): 4.7 (3.0)
- HOMA-IR Difference from placebo Estimated median ([1]; AMR101 4 g/d + statin): 0.3 (0.6)
- HbAlc Difference from placebo Estimated median ([1]; AMR101 4 g/d + statin): 0.1 (0.05)
- Insulin Difference from placebo Estimated median ([1]; AMR101 4 g/d + statin): 0.0 (1.3)
- Apo A1 Week 12 EP Median (IQR) ([2]; AMR101 2 g/d + statin): 141.0 (26.0) mg/dL
- Apo B Week 12 EP Median (IQR) ([2]; AMR101 2 g/d + statin): 95.0 (24.0) mg/dL
- Apo B/Apo A1 ratio Week 12 EP Median (IQR) ([2]; AMR101 2 g/d + statin): 0.7 (0.2)
- Lp (a) Week 12 EP Median (IQR) ([2]; AMR101 2 g/d + statin): 12.0 (33.0) mg/dL
- Apo A1 Percent change from Baseline Median (IQR) ([2]; AMR101 2 g/d + statin): 2.0 (13.0) %
- Apo B Percent change from Baseline Median (IQR) ([2]; AMR101 2 g/d + statin): 1.6 (20.7) %
- Apo B/Apo A1 ratio Percent change from Baseline Median (IQR) ([2]; AMR101 2 g/d + statin): 0.1 (18.3) %
- Lp (a) Percent change from Baseline Median (IQR) ([2]; AMR101 2 g/d + statin): 0.0 (24.9) %
- Apo A1 Difference from placebo Estimated median ([2]; AMR101 2 g/d + statin): −1.7%
- Apo B Difference from placebo Estimated median ([2]; AMR101 2 g/d + statin): −3.8%
- Apo B/Apo A1 ratio Difference from placebo Estimated median ([2]; AMR101 2 g/d + statin): −2.0%
- Lp (a) Difference from placebo Estimated median ([2]; AMR101 2 g/d + statin): 0.0%
- Apo A1 Week 12 EP Median (IQR) ([2]; AMR101 4 g/d + statin): 137.0 (29.0) mg/dL
- Apo B Week 12 EP Median (IQR) ([2]; AMR101 4 g/d + statin): 90.0 (25.0) mg/dL
- Apo B/Apo A1 ratio Week 12 EP Median (IQR) ([2]; AMR101 4 g/d + statin): 0.7 (0.2)
- Lp (a) Week 12 EP Median (IQR) ([2]; AMR101 4 g/d + statin): 9.0 (31.0) mg/dL
- Apo A1 Percent change from Baseline Median (IQR) ([2]; AMR101 4 g/d + statin): −2.9 (12.6) %
- Apo B Percent change from Baseline Median (IQR) ([2]; AMR101 4 g/d + statin): −2.2 (16.4) %
- Apo B/Apo A1 ratio Percent change from Baseline Median (IQR) ([2]; AMR101 4 g/d + statin): −0.7 (20.3) %
- Lp (a) Percent change from Baseline Median (IQR) ([2]; AMR101 4 g/d + statin): 0.0 (10.0) %
- Apo A1 Difference from placebo Estimated median ([2]; AMR101 4 g/d + statin): −6.9%
- Apo B Difference from placebo Estimated median ([2]; AMR101 4 g/d + statin): −9.3%
- Apo B/Apo A1 ratio Difference from placebo Estimated median ([2]; AMR101 4 g/d + statin): −2.4%
- Lp (a) Difference from placebo Estimated median ([2]; AMR101 4 g/d + statin): 0.0%
- Apo-B, Change From Baseline, % (median) [2, 3]: −2.2%
- Apo-B, End of Treatment (median) [2, 3]: 90.0 mg/dL
- Apo-B, Median Change From Baseline IPE 4 g/day vs Placebo, % ([2]; IPE 4 g/day vs placebo, 12 weeks, Hodges-Lehmann median): −8.8%
